Experiments:
[1] = test system: Mycobacterium tuberculosis; assay: Antitubercular activity against multidrug-resistant Mycobacterium tuberculosis clinical isolate 16,121; format: functional
[2] = test system: Mycobacterium tuberculosis; assay: Antitubercular activity against multidrug-resistant Mycobacterium tuberculosis clinical isolate 16,030; format: functional

Compound | MIC [1] [µg/mL] | MIC [2] [µg/mL]
CN(CC#CC1CCCCC1)c1nc(=O)c2cc(C(F)(F)F)cc([N+](=O)[O-])c2s1 | < 0.016 | < 0.016
CN(CC#Cc1ccccc1)c1nc(=O)c2cc(C(F)(F)F)cc([N+](=O)[O-])c2s1 | < 0.016 | < 0.016
CN(CC#Cc1cscn1)c1nc(=O)c2cc(C(F)(F)F)cc([N+](=O)[O-])c2s1 | < 0.016 | < 0.016
NNC(=O)c1ccncc1 [ISONIAZID] | > 10 | > 10
CO[C@H]1/C=C/O[C@@]2(C)Oc3c(C)c(O)c4c(O)c(c(/C=N/N5CCN(C)CC5)c(O)c4c3C2=O)NC(=O)/C(C)=C\C=C\[C@H](C)[C@H](O)[C@@H](C)[C@@H](O)[C@@H](C)[C@H](OC(C)=O)[C@@H]1C [RIFAMPIN] | > 10 | > 10

Source: ChEMBL document CHEMBL5528009, “Benzothiozinone derivatives with anti-tubercular Activity-Further side chain investigation” (Eur J Med Chem, 2024)
